Measured values as given in patent US20190022162A1, “COMBINATION ANTICANCER ENDOWED WITH ANTITUMOR ACTIVITY, COMPRISING ALKALOIDS OF CHELIDONIUM MAJUS” (International Society for Drug Development S.R.L., priority 2015, published 2019).

Columns and labels:
[1] = tested on: MIA PaCa-2 pancreatic cancer cell line; assay: Cell counting (Trypan blue, Neubauer chamber), MIA PaCa-2 cells; type: cell-based; details: for percentage of viable cells relative to the control: 48 h
Protocol: (§1) The MIA PaCa-2 cells were cultivated in T25 flasks and treated with the agents after reaching a confluence of 90%. After a 48 hours treatment, the cells were detached with trypsin-EDTA and suspended in medium consisting of 50% DMEM and 50% Trypan blue. The number of viable cells after each treatment was estimated by using the Neubauer counting chamber, excluding those cells which turned out positive to Trypan blue. At least three counts were made for each treatment.
The percentage of viable cells relative to the control was determined by the ratio between the number of treated cells and the number of untreated cells.

[2] = tested on: MIA PaCa-2 (pancreatic carcinoma); assay: WST-1 assay (dehydrogenase activity / cell viability), MIA PaCa-2 cells
[3] = tested on: U343 (glioblastoma); assay: WST-1 assay (dehydrogenase activity / cell viability), U343 cells; details: 48 h
[4] = Cell counting (Trypan blue, Neubauer chamber), HDF cells; type: cell-based, human; details: human, human dermal fibroblasts (HDF)
Protocol: (§2) For sake of completeness' of information and for the purpose of evaluating the differential cytotoxicity exerted both by the individual components of the combinations and by the combinations themselves on tumour and normal cells, the same treatments tested on U343 cells were also conducted on human dermal fibroblasts (HDF), chosen as a model of cells not concerned by tumour pathologies; this allowed, in the case of treatments tested on U343 cells, evaluations of the differential effects of the tested agents against tumour cells and against a model of normal cells, in accordance with the invention.
as §1, with “U343 cells and the HDF” for “MIA PaCa-2”, “After” for “After a”, “hours of” for “hours”, “excluding” for “excluding those”, “cells” for “cells which turned out”, “countings” for “counts”
(§3) The percentage of viable cells compared to the control was determined by the ratio between the number of treated cells and the number of untreated cells.

[5] = tested on: U343 (glioblastoma); assay: Cell counting (Trypan blue, Neubauer chamber), U343 cells; type: cell-based; details: for percentage of viable cells compared to the control: 48 h
Protocol: as §1, with “U343 cells and the HDF” for “MIA PaCa-2”, “After” for “After a”, “hours of” for “hours”, “excluding” for “excluding those”, “cells” for “cells which turned out”, “countings” for “counts”
as §3

[6] = tested on: human dermal fibroblasts (HDF); assay: Cell counting (Trypan blue, Neubauer chamber), HDF cells; type: cell-based
Protocol: as §2
as §1, with “U343 cells and the HDF” for “MIA PaCa-2”, “After” for “After a”, “hours of” for “hours”, “excluding” for “excluding those”, “cells” for “cells which turned out”, “countings” for “counts”
as §3

[7] = tested on: U343 cells / HDF cells; assay: Therapeutic Favourability Index (ratio of viable U343 to viable HDF cells); type: cell-based
Source text: It may be useful to remind that the TFI parameter allows estimating the ratio between desired cytotoxicity (on U343 cells) and undesired cytotoxicity (on HDF cells used as a normal cell model). The lower the value of the TFI parameter, the more the assayed agent is adequate for therapeutic use, since this parameter measures the ratio between desired cytotoxicity (on tumour cells) and undesired cytotoxicity (on the cells of the non-tumour model).

[8] = 2.154 μM (combination equimolar)
[9] = 4.642 μM (combination equimolar)

For `Nc1ccn([C@@H]2O[C@H](CO)[C@@H](O)C2(F)F)c(=O)n1` [Gemcitabine, gemcitabine, reference compound], the “percentage of viable cells relative to the control” value ([1]; Gemcitabine 20 μM) was 33%, the viability at 20 µM ([1]; Homo sapiens, MIA PaCa-2, 48 h, Gemcitabine 20 μM, read-out: percentage of viable cells relative to the control) was over 30% and the “effect on cell metabolic activity” value ([2]; agent alone, 0.1-10 μM) was “essentially negligible increase”.

With `CN1Cc2c(ccc3c2OCO3)[C@@H]2[C@H]1c1cc3c(cc1C[C@@H]2O)OCO3` [Chelidonine, chelidonine] the “Δ (viability %)” value ([3]; 0.1 μM (combination equimolar)) was 2.4722%, the “Δ (viability %)” value ([3]; 1 μM (combination equimolar)) was 25.9168% and the “Δ (viability %)” value [3, 8] was 40.0495%. For the same molecule, the “Δ (viability %)” value [3, 9] was 24.4335% and the “Δ (viability %)” value ([3]; 10 μM (combination equimolar)) was 14.3799%.

With `Cn1nnc2c(C(N)=O)ncn2c1=O` [temozolomide, reference compound] the cytotoxicity at 48 h ([4]; direct administration, decrease up to, read-out: reduction in the percentage of viable HDF cells) was 60 to 70%.

In the case of `COc1ccc2cc3[n+](cc2c1OC)CCc1cc2c(cc1-3)OCO2` [Berberine, berberine], the “% proliferation of U343 against control” value ([5]; 0.464 μM) is reported as 94.00%, the “% proliferation of U343 against control” value ([5]; 2.154 μM) is reported as 82.60% and the “% proliferation of U343 against control” value ([5]; 10.0 μM) is reported as 59.80%. The “percentage of viable cells compared to the control” value ([5]; Ber 0.464 μM) was 94%, the “percentage of viable cells compared to the control” value ([5]; Ber 2.154 μM) was 82.6% and the “percentage of viable cells compared to the control” value ([5]; Ber 10 μM) was 59.8%. It also gave a viability at 48 h, 0.464 μM ([4]; Ber 0.464 μM, 48 h, read-out: percentage of viable cells compared to the control) of 82.7%, a viability at 48 h, 2.154 μM ([4]; Ber 2.154 μM, 48 h, read-out: percentage of viable cells compared to the control) of 70.4% and a viability at 48 h, 10 μM ([4]; Ber 10 μM, 48 h, read-out: percentage of viable cells compared to the control) of 67.3%. For the same molecule, the “% proliferation of HDF against control” value ([6]; 0.464 μM) was 82.65%, the “% proliferation of HDF against control” value ([6]; 2.154 μM) was 71.41% and the “% proliferation of HDF against control” value ([6]; 10.0 μM) was 67.35%. The “percentage of viable cells relative to the control” value ([1]; Ber 0.4 μM) was 88%, the “percentage of viable cells relative to the control” value ([1]; Ber 2.0 μM) was 51% and the “percentage of viable cells relative to the control” value ([1]; Ber 10 μM, listed as Ber) was 33%. For the same molecule, the “percentage of viable cells relative to the control” value ([1]; Ber 50 μM) was 24%, the “TFI index U343/HDF % proliferation ratio” value ([7]; 0.464 μM) was 1.137 and the “TFI index U343/HDF % proliferation ratio” value ([7]; 2.154 μM) was 1.173. For the same molecule, the “TFI index U343/HDF % proliferation ratio” value ([7]; 10.0 μM) was 0.888, the “Δ (viability %)” value ([3]; 0.1 μM (combination equimolar)) was 23.2128% and the “Δ (viability %)” value ([3]; 0.215 μM (combination equimolar)) was 12.3254%. For the same molecule, the “Δ (viability %)” value ([3]; 0.464 μM (combination equimolar)) was 36.3599%, the “Δ (viability %)” value ([3]; 1 μM (combination equimolar)) was 27.3008% and the “Δ (viability %)” value [3, 8] was 15.4889%. The “Δ (viability %)” value [3, 9] was 11.3394%, the “Δ (viability %)” value ([3]; 10 μM (combination equimolar)) was 10.3533% and the “Δ (viability %)” value ([2]; 0.215 μM (combination equimolar), 48 h) was 5.73%. For the same molecule, the “decrease in the metabolic activity” value ([2]; starting from concentrations slightly lower than 10 μM) was “approx. 50%”.
